How the values were obtained:
[1] = molecular target: Cyclin-dependent kinase 9 (Homo sapiens, UniProt P50750); test: Selectivity interaction (KinomeScan (DiscoverX)) EUB0001049a CDK9; conditions: at 1 µM
[2] = molecular target: 5-hydroxytryptamine receptor 6 (Homo sapiens) (UniProt P50406); test: Selectivity interaction (GPCR panel (PDSP screen)) EUB0001079a HTR6; conditions: at 10 µM
[3] = molecular target: Calcium/calmodulin-dependent protein kinase type 1G (Homo sapiens) (UniProt Q96NX5); test: Selectivity interaction (Kinase panel (DSF assay)) EUB0001558a CAMK1G
[4] = molecular target: T1, Non-receptor tyrosine-protein kinase TNK1 (Homo sapiens) (UniProt Q13470); test: Selectivity interaction (KinomeScan (DiscoverX)) EUB0000595a TNK1; conditions: at 10 µM
T1 sequence (whole entry): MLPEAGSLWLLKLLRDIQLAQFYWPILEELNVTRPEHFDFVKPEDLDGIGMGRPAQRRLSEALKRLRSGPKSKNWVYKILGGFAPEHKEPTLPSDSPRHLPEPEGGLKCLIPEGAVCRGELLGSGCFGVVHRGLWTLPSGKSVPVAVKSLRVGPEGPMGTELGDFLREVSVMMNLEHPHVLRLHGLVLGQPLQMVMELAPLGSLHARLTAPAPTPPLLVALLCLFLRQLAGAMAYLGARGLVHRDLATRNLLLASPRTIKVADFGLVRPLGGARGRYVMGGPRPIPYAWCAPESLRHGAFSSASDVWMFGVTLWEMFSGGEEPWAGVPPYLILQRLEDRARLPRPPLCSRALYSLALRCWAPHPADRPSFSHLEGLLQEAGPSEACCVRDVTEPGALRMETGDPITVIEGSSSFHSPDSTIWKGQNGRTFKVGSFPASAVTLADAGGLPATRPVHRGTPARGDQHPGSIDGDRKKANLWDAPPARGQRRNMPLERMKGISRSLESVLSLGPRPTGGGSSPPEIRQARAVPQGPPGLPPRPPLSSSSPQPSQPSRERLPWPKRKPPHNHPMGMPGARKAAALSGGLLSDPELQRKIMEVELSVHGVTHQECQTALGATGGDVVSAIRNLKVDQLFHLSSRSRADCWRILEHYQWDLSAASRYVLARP

[5] = molecular target: T2, Serine/threonine-protein kinase Nek1 (Homo sapiens) (UniProt Q96PY6); test: Selectivity interaction (KinomeScan (DiscoverX)) EUB0000092b NEK1; conditions: at 10 µM
T2 sequence (whole entry): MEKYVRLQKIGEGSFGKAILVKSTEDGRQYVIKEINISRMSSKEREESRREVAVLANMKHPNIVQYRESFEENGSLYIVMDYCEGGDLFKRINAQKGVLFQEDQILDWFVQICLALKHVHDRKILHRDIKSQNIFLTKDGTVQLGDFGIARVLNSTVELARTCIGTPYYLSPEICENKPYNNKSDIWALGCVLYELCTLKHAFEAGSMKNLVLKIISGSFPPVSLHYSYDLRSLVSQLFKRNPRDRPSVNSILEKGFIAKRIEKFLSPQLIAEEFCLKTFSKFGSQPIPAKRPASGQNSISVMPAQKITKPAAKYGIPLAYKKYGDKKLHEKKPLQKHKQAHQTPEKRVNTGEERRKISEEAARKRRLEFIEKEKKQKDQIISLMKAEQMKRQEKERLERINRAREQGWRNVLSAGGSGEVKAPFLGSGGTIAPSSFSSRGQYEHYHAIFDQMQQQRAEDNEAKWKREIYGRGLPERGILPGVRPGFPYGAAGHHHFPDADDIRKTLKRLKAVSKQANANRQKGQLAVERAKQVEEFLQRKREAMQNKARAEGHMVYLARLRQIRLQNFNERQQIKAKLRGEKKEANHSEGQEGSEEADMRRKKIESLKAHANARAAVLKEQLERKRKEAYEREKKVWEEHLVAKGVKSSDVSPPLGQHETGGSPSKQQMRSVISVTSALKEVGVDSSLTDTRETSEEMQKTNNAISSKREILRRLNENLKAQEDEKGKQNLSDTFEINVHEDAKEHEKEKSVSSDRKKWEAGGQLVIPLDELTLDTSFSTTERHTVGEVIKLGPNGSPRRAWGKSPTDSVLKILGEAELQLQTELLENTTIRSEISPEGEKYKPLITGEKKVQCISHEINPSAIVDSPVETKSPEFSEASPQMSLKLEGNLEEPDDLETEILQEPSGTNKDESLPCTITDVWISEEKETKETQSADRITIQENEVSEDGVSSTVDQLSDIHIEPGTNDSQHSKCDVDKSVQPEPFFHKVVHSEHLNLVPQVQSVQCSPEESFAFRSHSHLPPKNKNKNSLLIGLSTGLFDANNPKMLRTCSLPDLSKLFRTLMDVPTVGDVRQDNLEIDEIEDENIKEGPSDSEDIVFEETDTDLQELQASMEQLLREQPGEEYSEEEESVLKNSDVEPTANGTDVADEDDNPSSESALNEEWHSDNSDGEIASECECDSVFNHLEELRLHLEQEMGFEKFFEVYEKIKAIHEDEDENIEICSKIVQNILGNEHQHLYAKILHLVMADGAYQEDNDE

[6] = molecular target: Fibroblast growth factor receptor 1 (Homo sapiens, UniProt P11362); test: Selectivity interaction (Ambit KINOMEscan and KiNATiv profiling in Jurkat cells) EUB0000090b FGFR1; type: cell-based; conditions: at 1 µM
[7] = molecular target: Receptor tyrosine-protein kinase erbB-3 (Homo sapiens) (UniProt P21860); test: Selectivity interaction (Ambit KINOMEscan and KiNATiv profiling in Jurkat cells) EUB0000090b ERBB3; type: cell-based; conditions: at 1 µM
[8] = molecular target: Cyclin-dependent kinase 16 (Homo sapiens) (UniProt Q00536); test: Selectivity interaction (Ambit KINOMEscan and KiNATiv profiling in Jurkat cells) EUB0000090b CDK16; type: cell-based; conditions: at 1 µM
[9] = molecular target: Dual specificity mitogen-activated protein kinase kinase 2 (Homo sapiens) (UniProt P36507); test: Selectivity interaction (KinomeScan (DiscoverX)) EUB0000618a MAP2K2; conditions: at 10 µM
[10] = molecular target: Cyclin-dependent kinase 8 (Homo sapiens, UniProt P49336); conditions: at 10 µM
Cyclin-dependent kinase 8, sequence (P49336 whole entry): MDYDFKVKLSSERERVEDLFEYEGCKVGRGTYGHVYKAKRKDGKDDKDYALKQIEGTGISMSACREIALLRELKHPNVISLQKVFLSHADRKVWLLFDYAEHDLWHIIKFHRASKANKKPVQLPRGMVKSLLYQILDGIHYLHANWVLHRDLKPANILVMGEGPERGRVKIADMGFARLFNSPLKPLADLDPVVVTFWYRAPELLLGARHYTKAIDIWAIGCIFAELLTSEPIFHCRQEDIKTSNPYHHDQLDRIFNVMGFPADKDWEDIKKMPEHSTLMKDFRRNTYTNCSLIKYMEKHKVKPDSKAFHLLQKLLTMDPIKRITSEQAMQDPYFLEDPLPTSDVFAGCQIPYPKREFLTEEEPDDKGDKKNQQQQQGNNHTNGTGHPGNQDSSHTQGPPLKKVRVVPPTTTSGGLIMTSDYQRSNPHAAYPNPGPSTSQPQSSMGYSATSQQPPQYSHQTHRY

Cyclin-dependent kinase 16 (Homo sapiens), sequence (Q00536 whole entry): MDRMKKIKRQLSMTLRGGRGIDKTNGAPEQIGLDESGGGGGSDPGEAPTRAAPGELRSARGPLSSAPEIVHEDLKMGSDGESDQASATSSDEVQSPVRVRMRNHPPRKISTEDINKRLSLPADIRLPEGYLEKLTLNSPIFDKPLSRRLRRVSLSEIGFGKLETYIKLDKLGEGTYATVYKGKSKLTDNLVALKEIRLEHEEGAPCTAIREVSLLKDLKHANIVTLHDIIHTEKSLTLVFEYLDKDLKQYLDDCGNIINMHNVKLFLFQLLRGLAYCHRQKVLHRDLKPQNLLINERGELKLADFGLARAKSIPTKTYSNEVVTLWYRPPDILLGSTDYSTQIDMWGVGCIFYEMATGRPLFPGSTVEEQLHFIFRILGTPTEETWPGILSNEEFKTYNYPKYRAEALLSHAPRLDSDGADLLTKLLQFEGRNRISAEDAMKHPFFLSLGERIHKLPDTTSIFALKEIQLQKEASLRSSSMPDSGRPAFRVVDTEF
Cyclin-dependent kinase 9, sequence (P50750 whole entry): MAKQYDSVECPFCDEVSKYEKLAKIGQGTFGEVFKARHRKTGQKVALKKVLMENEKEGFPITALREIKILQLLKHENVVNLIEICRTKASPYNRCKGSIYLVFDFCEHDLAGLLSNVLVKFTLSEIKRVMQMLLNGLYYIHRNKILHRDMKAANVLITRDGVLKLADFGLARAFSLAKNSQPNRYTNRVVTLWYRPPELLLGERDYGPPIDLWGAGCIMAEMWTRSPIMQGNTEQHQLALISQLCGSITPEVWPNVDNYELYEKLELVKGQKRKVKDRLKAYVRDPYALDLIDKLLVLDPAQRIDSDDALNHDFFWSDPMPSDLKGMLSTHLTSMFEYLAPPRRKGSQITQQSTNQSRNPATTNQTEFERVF
Calcium/calmodulin-dependent protein kinase type 1G (Homo sapiens), sequence (Q96NX5 whole entry): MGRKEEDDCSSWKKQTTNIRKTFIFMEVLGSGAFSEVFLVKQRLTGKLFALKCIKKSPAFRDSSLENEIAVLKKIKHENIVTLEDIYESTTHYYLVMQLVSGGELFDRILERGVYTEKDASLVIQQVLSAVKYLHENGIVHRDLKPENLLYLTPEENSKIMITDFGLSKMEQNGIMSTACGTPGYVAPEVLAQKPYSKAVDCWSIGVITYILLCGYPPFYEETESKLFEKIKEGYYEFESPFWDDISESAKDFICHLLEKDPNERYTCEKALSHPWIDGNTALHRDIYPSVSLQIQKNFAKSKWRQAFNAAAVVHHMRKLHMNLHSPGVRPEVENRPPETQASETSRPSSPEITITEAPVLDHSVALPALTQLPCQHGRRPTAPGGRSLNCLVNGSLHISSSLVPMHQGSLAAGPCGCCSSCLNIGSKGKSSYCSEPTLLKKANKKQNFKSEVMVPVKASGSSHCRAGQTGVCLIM
Dual specificity mitogen-activated protein kinase kinase 2 (Homo sapiens), sequence (P36507 whole entry): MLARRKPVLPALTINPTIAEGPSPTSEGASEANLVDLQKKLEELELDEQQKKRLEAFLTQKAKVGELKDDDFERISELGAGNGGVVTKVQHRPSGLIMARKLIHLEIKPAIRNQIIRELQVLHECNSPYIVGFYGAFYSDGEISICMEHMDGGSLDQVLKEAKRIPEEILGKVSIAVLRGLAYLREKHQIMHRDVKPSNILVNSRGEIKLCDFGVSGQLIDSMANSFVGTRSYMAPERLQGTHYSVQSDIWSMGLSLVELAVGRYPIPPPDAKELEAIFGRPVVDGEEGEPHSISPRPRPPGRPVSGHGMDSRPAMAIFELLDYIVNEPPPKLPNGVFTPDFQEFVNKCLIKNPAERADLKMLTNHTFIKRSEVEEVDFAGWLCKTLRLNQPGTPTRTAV
5-hydroxytryptamine receptor 6 (Homo sapiens), sequence (P50406 whole entry): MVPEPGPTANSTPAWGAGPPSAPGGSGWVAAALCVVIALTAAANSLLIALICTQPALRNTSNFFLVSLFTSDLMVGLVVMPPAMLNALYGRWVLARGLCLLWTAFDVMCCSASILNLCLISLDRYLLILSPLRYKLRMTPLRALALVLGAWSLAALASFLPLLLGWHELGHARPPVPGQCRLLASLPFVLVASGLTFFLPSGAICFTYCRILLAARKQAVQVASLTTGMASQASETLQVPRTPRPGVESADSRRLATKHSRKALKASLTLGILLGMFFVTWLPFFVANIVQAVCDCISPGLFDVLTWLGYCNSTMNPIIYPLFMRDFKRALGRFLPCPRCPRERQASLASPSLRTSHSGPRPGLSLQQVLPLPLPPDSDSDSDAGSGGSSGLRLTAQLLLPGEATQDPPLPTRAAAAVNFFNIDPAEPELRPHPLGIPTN
Receptor tyrosine-protein kinase erbB-3 (Homo sapiens), sequence (P21860 whole entry): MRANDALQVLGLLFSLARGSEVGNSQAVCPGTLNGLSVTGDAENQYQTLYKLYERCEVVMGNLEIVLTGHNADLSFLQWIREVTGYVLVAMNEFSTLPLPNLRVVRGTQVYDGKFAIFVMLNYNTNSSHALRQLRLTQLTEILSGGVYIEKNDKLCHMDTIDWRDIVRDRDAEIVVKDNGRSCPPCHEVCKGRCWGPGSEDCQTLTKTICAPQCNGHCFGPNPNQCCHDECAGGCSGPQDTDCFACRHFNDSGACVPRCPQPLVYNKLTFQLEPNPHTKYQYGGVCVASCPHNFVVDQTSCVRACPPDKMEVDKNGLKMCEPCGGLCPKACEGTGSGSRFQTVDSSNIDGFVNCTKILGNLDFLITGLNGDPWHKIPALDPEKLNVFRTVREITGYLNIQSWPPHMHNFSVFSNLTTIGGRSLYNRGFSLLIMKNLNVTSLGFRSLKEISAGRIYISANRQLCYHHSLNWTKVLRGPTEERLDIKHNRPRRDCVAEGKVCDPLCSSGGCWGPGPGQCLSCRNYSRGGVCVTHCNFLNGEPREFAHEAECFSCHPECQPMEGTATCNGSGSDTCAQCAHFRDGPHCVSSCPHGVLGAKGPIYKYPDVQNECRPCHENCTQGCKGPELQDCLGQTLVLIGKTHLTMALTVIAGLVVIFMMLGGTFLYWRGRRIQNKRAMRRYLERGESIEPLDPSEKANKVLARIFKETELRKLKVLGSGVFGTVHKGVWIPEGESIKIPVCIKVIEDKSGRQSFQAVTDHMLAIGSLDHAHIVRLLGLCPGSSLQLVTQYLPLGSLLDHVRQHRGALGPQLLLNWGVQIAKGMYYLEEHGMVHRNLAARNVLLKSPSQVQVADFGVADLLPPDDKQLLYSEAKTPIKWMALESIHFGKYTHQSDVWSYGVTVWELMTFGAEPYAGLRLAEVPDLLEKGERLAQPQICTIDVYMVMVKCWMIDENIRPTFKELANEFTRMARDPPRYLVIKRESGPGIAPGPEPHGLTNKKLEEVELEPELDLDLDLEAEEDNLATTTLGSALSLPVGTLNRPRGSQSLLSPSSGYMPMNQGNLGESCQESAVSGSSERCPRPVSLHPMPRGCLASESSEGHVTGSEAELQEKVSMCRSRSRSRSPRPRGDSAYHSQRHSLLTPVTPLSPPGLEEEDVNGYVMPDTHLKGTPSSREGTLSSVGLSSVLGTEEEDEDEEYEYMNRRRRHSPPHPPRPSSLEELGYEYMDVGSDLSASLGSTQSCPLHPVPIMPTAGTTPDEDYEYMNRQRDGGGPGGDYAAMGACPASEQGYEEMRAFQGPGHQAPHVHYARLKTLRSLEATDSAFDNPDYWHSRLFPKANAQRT
Fibroblast growth factor receptor 1, sequence (P11362 22-822 limits assumed): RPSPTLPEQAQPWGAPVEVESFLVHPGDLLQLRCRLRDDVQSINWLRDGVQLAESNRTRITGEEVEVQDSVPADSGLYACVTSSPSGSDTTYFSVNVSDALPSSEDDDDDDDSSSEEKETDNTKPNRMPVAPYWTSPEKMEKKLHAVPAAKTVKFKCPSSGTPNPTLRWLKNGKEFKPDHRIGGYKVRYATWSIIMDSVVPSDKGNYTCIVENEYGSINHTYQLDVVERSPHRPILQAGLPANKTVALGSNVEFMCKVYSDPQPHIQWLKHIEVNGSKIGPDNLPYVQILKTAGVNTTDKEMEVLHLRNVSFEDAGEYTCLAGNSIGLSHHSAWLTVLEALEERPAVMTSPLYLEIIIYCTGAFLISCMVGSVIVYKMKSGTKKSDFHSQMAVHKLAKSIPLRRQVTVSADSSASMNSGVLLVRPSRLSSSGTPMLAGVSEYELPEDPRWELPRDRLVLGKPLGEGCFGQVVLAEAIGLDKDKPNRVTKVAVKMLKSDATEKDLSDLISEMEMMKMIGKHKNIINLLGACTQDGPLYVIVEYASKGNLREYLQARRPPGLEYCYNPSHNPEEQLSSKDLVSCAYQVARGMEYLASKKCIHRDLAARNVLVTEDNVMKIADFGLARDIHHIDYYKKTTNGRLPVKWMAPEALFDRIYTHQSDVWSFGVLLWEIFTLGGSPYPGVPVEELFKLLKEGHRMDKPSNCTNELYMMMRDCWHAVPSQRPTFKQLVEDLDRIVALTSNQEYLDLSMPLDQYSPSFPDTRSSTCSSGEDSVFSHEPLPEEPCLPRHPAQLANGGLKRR

In the case of `COc1cc(Nc2nc(C)cc(-c3cnn4nc(OC)ccc34)n2)cc(C(F)(F)F)c1`, the % of control [1] is reported as 100%.

For `Nc1cnc(N2CCc3cc(S(=O)(=O)Nc4c(F)cc(Cl)cc4F)cc(N4CCCC4=O)c32)nc1` [TP-020n], the % of inhibition [2] was -26.7%.

`CC(C)(O)[C@H](F)CN1Cc2cc(NC(=O)c3cnn4cccnc34)c(N3CCOCC3)cc2C1=O` was tested, and the dTM [3] was 0.4 K.

For `COCC(=O)NC/C=C/c1ccc2ncnc(Nc3ccc(Oc4ccc(C)nc4)c(C)c3)c2c1` [CP-724714], the % of control [4] was 86%.

Compound `CCC(=O)N1CCN(c2ccc(-n3c(=O)ccc4cnc5ccc(-c6cnc7ccccc7c6)cc5c43)cc2C(F)(F)F)CC1` has a % of control [5] of 89%.

Work on `CN(C)C/C=C/C(=O)Nc1ccc(C(=O)N2CCCC(Nc3ncc(Cl)c(-c4c[nH]c5ccccc45)n3)C2)cc1` (stereo not given) yielded a % of control [6] of 82%, a % of control [7] of 98% and a % of control [8] of 68%.

With `O[C@H]1CC[C@H](Nc2ncc3nc(Nc4c(F)cc(F)cc4F)n([C@H]4CCOC4)c3n2)CC1` the % of control [9] was 100%.

With `Cc1cc([C@@H](C)Nc2ccccc2C(=O)O)c2nc(N3CCOCC3)cc(=O)n2c1` [AZD-6482] the % of control [10] was 79%.
